Assay results published in patent US9416144B2, “Benzoxazine oxazolidinone compound, preparation method and application thereof” (priority 2012, dated 2016).
Converted amounts (≈) assume the structure as drawn.

Experiments:
[1] = tested on: Staphylococcus epidermidis resistant strains (5 strains); test: In vitro antibacterial activity, MIC by agar double dilution method; assay type: cell-based; conditions: clinical isolates
Text: (§1) Experimental method: The agar double dilution method (Antimicrob. Agents and Chemother, 40, 1996, 720-726) was used to determine the minimum inhibitory concentration (MIC) of the series of compounds of the invention and the positive control drug linezolid for the test strains. The multipoint inoculation system (Denley A400) was employed to inoculate the bacteria on the agar plate surface with different concentrations of drugs; inoculation amount on each point was about 10^6 CFU/mL. The plates were incubated at 35° C. for 16 hrs before the results were observed. The lowest drug concentration contained in the Petri dish without bacterial growth was used as the minimum inhibitory concentration (MIC value) of the drug fir that strain.
(§2) Test strains: All the test strains were clinically isolated pathogens which were collected from the Nanjing region, and they were re-identified by routine methods before use. 31 strains of the clinically isolated pathogens were chosen, including 6 strains of Enterococcus, 5 Staphylococcus aureus sensitive strains; 5 Staphylococcus epidermidis sensitive strains; 6 Staphylococcus aureus resistant strains; 5 Staphylococcus epidermidis resistant strains; and 4 Streptococcus pneumoniae resistant strains.
(§3) Compounds to be tested were first added 2 ml of DMSO to help them fully dissolved, then added sterile double distilled water to the desired concentration; to all the Petri dish with added drug liquid were added 20 mL MIT medium which was heat-melted to be liquid-like, to make the final drug concentration in the Petri dish to be 64, 32, 16, 8, 4, 2, 1, 0.5, 0.25, 0.125, 0.0625, and 0.031 μg/mL.
(§4) The positive control group was LZ (linezolid, brand name Zyvox, approved by the FDA in 2000 to be firstly sold in the United States, which is the first and also the only one of oxazolidinone antibacterial drugs allowed to enter clinical application).

[2] = tested on: Staphylococcus aureus resistant strains (6 strains); test: as above; assay type: cell-based; conditions: clinical isolates
Text: as §1, §2, §3, §4

Enterococcus (6 strains) = test: as above; assay type: cell-based; conditions: clinical isolates, 35° C. 16 hrs
Text: as §1, §2, §3, §4

[3] = tested on: Staphylococcus aureus sensitive strains (5 strains); test: as above; assay type: cell-based; conditions: clinical isolates
Text: as §1, §2, §3, §4

[4] = tested on: Streptococcus pneumoniae resistant strains (4 strains); test: as above; assay type: cell-based; conditions: clinical isolates
Text: as §1, §2, §3, §4

[5] = tested on: Staphylococcus epidermidis sensitive strains (5 strains); test: as above; assay type: cell-based; conditions: clinical isolates
Text: as §1, §2, §3, §4

Compound	melting point	MIC [1]	MIC [2]	MIC (Enterococcus (6 strains))	MIC [3]	MIC [4]	MIC [5]
Cc1cc(C#N)ncc1-c1ccc2c(c1)OC[C@H]1[C@H](CO)OC(=O)N21 [Compound 21, 5-((3R,3aS)-3-(hydroxylmethyl)-1-oxo-1,3,3a,4-tetrahydrobenzo[b]oxazolo[3,4-d][1,4]oxazin-7-yl)-4-methylpicolinonitrile]	238 to 240 °C	0.25 to 1 µg/mL (≈ 0.741 to 2.96 µM)	0.5 to 1 µg/mL (≈ 1.48 to 2.96 µM)	4 to 8 µg/mL (≈ 11.9 to 23.7 µM)	0.25 to 0.5 µg/mL (≈ 0.741 to 1.48 µM)	1 to 2 µg/mL (≈ 2.96 to 5.93 µM)	0.25 to 0.5 µg/mL (≈ 0.741 to 1.48 µM)
NC1(c2ccc(-c3ccc4c(c3)OC[C@H]3[C@H](CO)OC(=O)N43)cn2)CC1 [Compound 29, (3R,3aS)-7-(6-(1-aminocyclopropyl)pyridin-3-yl)-3-(hydroxylmethyl)-3a,4-dihydrobenzo[b]oxazolo[3,4-d][1,4]oxazin-1(3H)-one]	–	1 to 2 µg/mL (≈ 2.83 to 5.66 µM)	1 µg/mL (≈ 2.83 µM)	2 µg/mL (≈ 5.66 µM)	2 to 4 µg/mL (≈ 5.66 to 11.3 µM)	1 to 2 µg/mL (≈ 2.83 to 5.66 µM)	1 µg/mL (≈ 2.83 µM)
NCc1ccc(-c2ccc3c(c2)OC[C@H]2[C@H](CO)OC(=O)N32)cn1 [Compound 30, (3R,3aS)-7-(6-(aminomethyl)pyridin-3-yl)-3-(hydroxylmethyl)-3a,4-dihydrobenzo[b]oxazolo[3,4-d][1,4]oxazin-1(3H)-one]	–	0.5 to 4 µg/mL (≈ 1.53 to 12.2 µM)	2 to 4 µg/mL (≈ 6.11 to 12.2 µM)	4 to 8 µg/mL (≈ 12.2 to 24.4 µM)	2 to 4 µg/mL (≈ 6.11 to 12.2 µM)	4 to 16 µg/mL (≈ 12.2 to 48.9 µM)	1 to 2 µg/mL (≈ 3.05 to 6.11 µM)
O=C1CNCCN1c1ccc(-c2ccc3c(c2)OC[C@H]2[C@H](CO)OC(=O)N32)cn1 [Compound 31, (3R,3aS)-3-(hydroxylmethyl)-7-(6-(2-oxopiperazin-1-yl)pyridin-3-yl)-3a,4-dihydrobenzo[b]oxazolo[3,4-d][1,4]oxazin-1(3H)-one]	–	2 to 4 µg/mL (≈ 5.05 to 10.1 µM)	2 to 4 µg/mL (≈ 5.05 to 10.1 µM)	16 µg/mL (≈ 40.4 µM)	2 to 4 µg/mL (≈ 5.05 to 10.1 µM)	4 µg/mL (≈ 10.1 µM)	2 to 4 µg/mL (≈ 5.05 to 10.1 µM)
NCC1CN(c2ccc(-c3ccc4c(c3)OC[C@H]3[C@H](CO)OC(=O)N43)cn2)C(=O)O1 (stereo partly drawn) [Compound 33, (3R,3aS)-7-(6-(5-(aminomethyl)-2-oxooxazolidin-3-yl)pyridin-3-yl)-3-(hydroxylmethyl)-3a,4-dihydrobenzo[b]oxazolo[3,4-d][1,4]oxazin-1(3H)-one]	–	2 µg/mL (≈ 4.85 µM)	1 to 2 µg/mL (≈ 2.42 to 4.85 µM)	1 to 2 µg/mL (≈ 2.42 to 4.85 µM)	1 to 2 µg/mL (≈ 2.42 to 4.85 µM)	2 µg/mL (≈ 4.85 µM)	0.5 to 1 µg/mL (≈ 1.21 to 2.42 µM)
